In US20180273538A1, “PYRROLO[2,3-d]PYRIMIDINE DERIVATIVES, A PROCESS FOR THEIR PREPARATION AND PHARMACEUTICAL COMPOSITIONS CONTAINING THEM” (LES LABORATOIRES SERVIER, priority 2015, published 2018):

What was measured:
phospho-Ser520-DYRK1A = target: T1, phospho-Ser520-DYRK1A (Homo sapiens, UniProt Q13627); assay: Cellular DYRK1A autophosphorylation assay in U2-OS cells; assay type: cell-based; details: 5 hours exposure, read-out: IC50 (μM) P-Ser520-Dyrk1A-Cell assay
T1 construct: full-length, wild-type human DYRK1A (NM_001396) with an HA tag; expressed in transfected cells; host or cells: human U2-OS osteosarcoma cells, pcDNA3.1 plasmid

DYRK1A = target: T2, DYRK1A (Homo sapiens, UniProt Q13627); assay: Kinase TR-FRET assay, DYRK1A; assay type: biochemical
T2 construct: full-length human kinases from Carna Biosciences; purchased Carna Biosciences 04-130

[1] = target: T3, His-TEV-DYRK1A Kinase domain (aa127-485) (Homo sapiens, UniProt Q13627); assay: Kinase ADP assay (ADP Hunter Plus); assay type: biochemical
T3 construct: His-TEV-DYRK1A Kinase domain (aa127-485); His (N); TEV cleavage site (N)

CLK1 = target: T4, CLK1 (Homo sapiens, UniProt P49759); assay: Kinase TR-FRET assay, CLK1; assay type: biochemical
T4 construct: full-length human kinases from Carna Biosciences; purchased Carna Biosciences 04-126
T4 sequence (P49759 1-526 isoform P49759-3): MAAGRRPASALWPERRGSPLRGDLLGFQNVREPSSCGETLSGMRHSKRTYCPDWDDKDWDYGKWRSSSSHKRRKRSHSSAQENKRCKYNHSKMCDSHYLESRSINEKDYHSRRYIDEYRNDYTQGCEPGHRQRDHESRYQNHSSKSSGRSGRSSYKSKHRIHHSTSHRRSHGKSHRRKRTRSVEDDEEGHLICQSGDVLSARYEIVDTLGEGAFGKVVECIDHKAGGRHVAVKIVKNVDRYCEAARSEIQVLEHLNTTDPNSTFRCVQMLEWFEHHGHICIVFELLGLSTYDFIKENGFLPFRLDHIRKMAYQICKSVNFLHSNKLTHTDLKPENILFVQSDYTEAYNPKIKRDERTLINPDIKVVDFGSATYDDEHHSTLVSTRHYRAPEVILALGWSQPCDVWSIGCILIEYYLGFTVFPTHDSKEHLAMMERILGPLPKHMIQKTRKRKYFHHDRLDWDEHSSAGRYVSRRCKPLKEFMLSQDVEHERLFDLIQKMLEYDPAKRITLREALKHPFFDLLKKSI

DYRK1B = target: T5, DYRK1B (Homo sapiens, UniProt Q9Y463); assay: Kinase TR-FRET assay, DYRK1B; assay type: biochemical
T5 construct: full-length human kinases from Carna Biosciences; purchased Carna Biosciences 04-131
T5 sequence (Q9Y463 whole entry): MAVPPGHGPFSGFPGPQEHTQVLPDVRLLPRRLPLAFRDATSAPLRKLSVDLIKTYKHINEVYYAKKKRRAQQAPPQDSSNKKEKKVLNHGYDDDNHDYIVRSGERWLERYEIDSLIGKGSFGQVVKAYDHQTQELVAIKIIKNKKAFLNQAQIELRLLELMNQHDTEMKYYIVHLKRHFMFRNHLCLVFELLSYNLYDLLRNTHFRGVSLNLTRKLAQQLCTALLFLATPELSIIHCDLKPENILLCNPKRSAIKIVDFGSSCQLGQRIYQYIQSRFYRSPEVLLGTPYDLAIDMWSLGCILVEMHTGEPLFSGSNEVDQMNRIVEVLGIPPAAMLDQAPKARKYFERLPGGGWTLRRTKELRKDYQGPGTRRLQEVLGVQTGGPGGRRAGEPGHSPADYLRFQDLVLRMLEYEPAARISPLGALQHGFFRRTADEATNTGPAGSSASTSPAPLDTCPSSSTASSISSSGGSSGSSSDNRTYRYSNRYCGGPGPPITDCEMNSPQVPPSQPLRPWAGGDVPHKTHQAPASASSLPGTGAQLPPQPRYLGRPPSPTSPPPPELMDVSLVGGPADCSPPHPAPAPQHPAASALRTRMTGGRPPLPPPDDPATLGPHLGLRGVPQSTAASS

CDK9 = target: T6, CDK9 (Homo sapiens, UniProt P50750); assay: Kinase TR-FRET assay, CDK9; assay type: biochemical
T6 construct: full-length human kinases from Carna Biosciences; purchased Carna Biosciences 04-110
T6 sequence (P50750 whole entry): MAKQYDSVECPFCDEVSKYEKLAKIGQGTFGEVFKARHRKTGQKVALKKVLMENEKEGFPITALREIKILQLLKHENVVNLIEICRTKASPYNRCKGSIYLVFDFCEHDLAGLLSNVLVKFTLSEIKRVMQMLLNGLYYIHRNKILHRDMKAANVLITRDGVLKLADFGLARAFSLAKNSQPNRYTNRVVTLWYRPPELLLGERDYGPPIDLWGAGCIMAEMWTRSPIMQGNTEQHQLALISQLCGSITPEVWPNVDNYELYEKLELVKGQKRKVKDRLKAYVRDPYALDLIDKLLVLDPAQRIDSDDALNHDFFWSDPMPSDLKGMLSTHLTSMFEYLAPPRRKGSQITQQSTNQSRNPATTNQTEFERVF
T6 sequence (O60563 whole entry partner): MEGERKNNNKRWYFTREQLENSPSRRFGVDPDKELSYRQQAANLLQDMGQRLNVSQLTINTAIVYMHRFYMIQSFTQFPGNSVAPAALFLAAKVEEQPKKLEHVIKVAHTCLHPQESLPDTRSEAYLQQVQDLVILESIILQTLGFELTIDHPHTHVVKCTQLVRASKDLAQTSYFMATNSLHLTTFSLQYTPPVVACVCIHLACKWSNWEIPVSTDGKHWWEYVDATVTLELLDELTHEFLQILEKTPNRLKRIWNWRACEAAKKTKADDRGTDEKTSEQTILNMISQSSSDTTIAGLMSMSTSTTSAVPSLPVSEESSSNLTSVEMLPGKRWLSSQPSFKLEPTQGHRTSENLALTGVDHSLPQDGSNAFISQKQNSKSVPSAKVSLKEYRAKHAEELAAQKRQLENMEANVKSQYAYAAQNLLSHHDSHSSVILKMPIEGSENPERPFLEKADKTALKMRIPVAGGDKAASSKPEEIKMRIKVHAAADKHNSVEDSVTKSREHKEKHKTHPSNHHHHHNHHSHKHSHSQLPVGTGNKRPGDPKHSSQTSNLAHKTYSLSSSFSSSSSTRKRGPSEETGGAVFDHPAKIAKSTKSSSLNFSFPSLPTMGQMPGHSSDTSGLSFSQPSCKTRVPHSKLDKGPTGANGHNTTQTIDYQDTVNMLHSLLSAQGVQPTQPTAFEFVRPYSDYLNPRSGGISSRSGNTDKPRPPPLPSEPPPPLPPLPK

Row | SMILES | IC50 (phospho-Ser520-DYRK1A) [µM] | IC50 (DYRK1A) [µM] | IC50 [1] [µM] | IC50 (CLK1) [µM] | IC50 (DYRK1B) [µM] | IC50 (CDK9) [µM]
1 | COc1ccccc1CNc1nc(C)nc2[nH]cc(-c3ccnc(N)c3)c12 [Example 55, 5-(2-aminopyridin-4-yl)-N-(2-methoxybenzyl)-2-methyl-7H-pyrrolo[2,3-d]pyrimidin-4-amine] | 0.0058 | 0.0102 | 0.009 | 0.0157 | 0.0043 | 1.3
2 | Cc1nc(NCc2c(C)cccc2F)c2c(-c3ccnc(N)c3)c[nH]c2n1 [Example 70, 5-(2-aminopyridin-4-yl)-N-(2-fluoro-6-methylbenzyl)-2-methyl-7H-pyrrolo[2,3-d]pyrimidin-4-amine] | 0.027 | 0.0025 | 0.009 | 0.0152 | 0.0015 | 1.5
3 | Cc1nc(-c2cc3ccccc3s2)c2c(-c3ccnc(N)n3)c[nH]c2n1 [Example 207, 4-[4-(1-benzothiophen-2-yl)-2-methyl-7H-pyrrolo[2,3-d]pyrimidin-5-yl]pyrimidin-2-amine] | 0.0694 | 0.0049 | 0.01 | 0.0545 | 0.0181 | 7.83

More lines, in order of falling IC50 (phospho-Ser520-DYRK1A), values ahead:

Row | IC50 (phospho-Ser520-DYRK1A) [µM] | IC50 (DYRK1A) [µM] | IC50 [1] [µM] | IC50 (CLK1) [µM] | IC50 (DYRK1B) [µM] | IC50 (CDK9) [µM] | SMILES
4 | 0.0497 | 0.0026 | 0.015 | 0.0233 | 0.0098 | 8.06 | Cc1nc(NCc2ccccc2Cl)c2c(-c3ccnc(N)c3)c[nH]c2n1 [Example 57, 5-(2-aminopyridin-4-yl)-N-(2-chlorobenzyl)-2-methyl-7H-pyrrolo[2,3-d]pyrimidin-4-amine]
5 | 0.0342 | 0.003 | 0.013 | 0.0649 | 0.0081 | 11.6 | Cc1nc(C2=Cc3ccccc3CC2)c2c(-c3ccnc(N)c3)c[nH]c2n1 [Example 187]
